Source: patent publication US11214803B2, “Modulators of YAP1 expression” (Ionis Pharmaceuticals, Inc., priority 2019, dated 2022)
Strand notation (5' to 3'): a small letter for the sugar, then the base; units joined by * are phosphorothioate-linked, units joined directly phosphodiester-linked; [ ] holds rarer units or linkages, { } end groups; capitals alone tell only the bases. k = constrained ethyl (cEt); [5mC] = 5-methylcytosine; d = 2'-deoxy (DNA)

Tests used:
[1] = tested on: Yap1 mRNA; experiment: Antisense inhibition of human Yap1 in A-431 cells by cEt gapmers, single dose (Example 1, RTS4814); assay type: cell-based
Experimental: Modified oligonucleotides were designed to target a Yap1 nucleic acid and were tested for their effect on Yap1 mRNA level in vitro. The modified oligonucleotides were tested in a series of experiments that had similar culture conditions. Cultured A-431 cells at a density of 5,000 cells per well were treated using free uptake with 2,000 nM of modified oligonucleotide. After a treatment period of approximately 48 hours, RNA was isolated from the cells and Yap1 mRNA levels were measured by quantitative real-time RTPCR. Human primer probe set RTS4814 (forward sequence […], designated herein as SEQ ID NO.: 11; reverse sequence […], designated herein as SEQ ID NO.: 12; probe sequence […], designated herein as SEQ ID NO.: 13) was used to measure mRNA levels. Yap1 mRNA levels were normalized to total RNA content, as measured by RIBOGREEN®. Results are presented in the tables below as percent control of the amount of Yap1 mRNA relative to untreated control cells (% UTC). The modified oligonucleotides with percent control values marked with an asterisk (*) target the amplicon region of the primer probe set. Additional assays may be used to measure the potency and efficacy of the modified oligonucleotides targeting the amplicon region.
The newly designed modified oligonucleotides in the Tables below were designed as 3-10-3 cEt gapmers. The gapmers are 16 nucleosides in length, wherein the central gap segment comprises of ten 2′-deoxynucleosides and is flanked by wing segments on the 5′ direction and the 3′ direction comprising three nucleosides each. Each nucleoside in the 5′ wing segment and each nucleoside in the 3′ wing segment has a cEt sugar modification. The internucleoside linkages throughout each gapmer are phosphorothioate (P═S) linkages. All cytosine residues throughout each gapmer are 5-methylcytosines.
“Start site” indicates the 5′-most nucleoside to which the gapmer is targeted in the human gene sequence. “Stop site” indicates the 3′-most nucleoside to which the gapmer is targeted human gene sequence. […] Activity of the modified oligonucleotide may be defined in a different experiment.

[2] = tested on: Yap1 mRNA; experiment: Dose-dependent inhibition of human Yap1 in A-431 cells (Example 6, 5,000 cells per well, RTS4814); assay type: cell-based; conditions: for Yap1 mRNA, % UTC: 48 hours; for % UTC 148 nM / % UTC 444 nM / % UTC 1333 nM / % UTC 4000 nM: approximately 48 hours
Experimental: Modified oligonucleotides described in the studies above were tested at various doses in A-431 cells. Cultured A-431 cells at a density of 5,000 cells per well were treated using free uptake with modified oligonucleotides diluted to concentrations described in the tables below. After approximately 48 hours, Yap1 mRNA levels were measured as previously described using the Human Yap1 primer-probe set RTS4814. Yap1 mRNA levels were normalized to total RNA content, as measured by RIBOGREEN®. Results are presented in the tables below as percent control of the amount of Yap1 mRNA relative to untreated control cells (% UTC). IC50s were calculated using a linear regression on a log/linear plot of the data in excel.

[3] = Table 2, A-431 cells, free uptake, 2,000 nM, approximately 48 hours, RTS4814, Yap1 mRNA relative to untreated control cells
[4] = A-431 cells, 5,000 cells per well, free uptake, 2,000 nM modified oligonucleotide, approx. 48 hours, RTS4814, normalized to RIBOGREEN, Table 3
[5] = Table 55, 148 nM, free uptake, A-431 cells 5,000 cells per well, RTS4814
[6] = Table 55, 444 nM, free uptake, A-431 cells 5,000 cells per well, RTS4814
[7] = Table 55, 1333 nM, free uptake, A-431 cells 5,000 cells per well, RTS4814
[8] = Table 55, 4000 nM, free uptake, A-431 cells 5,000 cells per well, RTS4814
[9] = Table 55, A-431 cells 5,000 cells per well, free uptake, RTS4814
[10] = Table 54, A-431 cells, Yap1 mRNA, linear regression on a log/linear plot
[11] = Table 54, A-431 cells, free uptake, 148 nM, RTS4814
[12] = Table 54, A-431 cells, free uptake, 444 nM, RTS4814
[13] = Table 54, A-431 cells, free uptake, 1333 nM, RTS4814
[14] = Table 54, A-431 cells, free uptake, 4000 nM, RTS4814
[15] = Table 53, A-431 cells, Yap1 mRNA, linear regression on a log/linear plot
[16] = Table 53, A-431 cells, free uptake, 148 nM, RTS4814
[17] = Table 53, A-431 cells, free uptake, 444 nM, RTS4814
[18] = Table 53, A-431 cells, free uptake, 1333 nM, RTS4814
[19] = Table 53, A-431 cells, free uptake, 4000 nM, RTS4814

Substance: 715563 (kA*kG*k[5mC]*dA*d[5mC]*dA*d[5mC]*dA*dA*d[5mC]*dT*d[5mC]*dA*kG*kA*k[5mC]; antisense) [Compound 715563]
- YAP1 (% UTC) [1, 3]: 86 % UTC

Substance: 715465 (antisense kG*kT*k[5mC]*d[5mC]*dA*d[5mC]*dA*dT*dT*dT*dG*dT*d[5mC]*k[5mC]*k[5mC]*kA) [Compound 715465]
- YAP1 (% UTC) [1, 4]: 91 % UTC

Substance: 715482 (antisense k[5mC]*kT*kT*dT*dG*dG*dA*dA*dA*d[5mC]*d[5mC]*dA*dT*kT*kA*kT) [Compound 715482]
- YAP1 (% UTC) [1, 3]: 58 % UTC

Substance: 715604 (antisense kT*kA*kG*d[5mC]*dA*d[5mC]*dA*dG*dA*dA*dT*dT*d[5mC]*k[5mC]*k[5mC]*kA) [Compound 715604]
- YAP1 (% UTC) ([1]; Table 1, A-431 cells, free uptake, 2,000 nM, approximately 48 hours, RTS4814, Yap1 mRNA relative to untreated control cells): 107 % UTC

Substance: 715443 (antisense kT*kT*k[5mC]*dA*d[5mC]*dT*dG*dG*dA*dG*d[5mC]*dA*d[5mC]*kT*k[5mC]*kT) [Compound 715443]
- YAP1 (% UTC) [1, 3]: 40 % UTC

Substance: 715447 (antisense k[5mC]*kA*kA*dT*dT*d[5mC]*d[5mC]*dT*dG*dA*dG*dA*d[5mC]*kA*kT*k[5mC]) [Compound 715447]
- YAP1 (% UTC) [1, 4]: 81 % UTC

Substance: 716537 (antisense kA*kT*kG*dT*dG*d[5mC]*dT*d[5mC]*d[5mC]*dA*dT*d[5mC]*dA*kA*k[5mC]*k[5mC]) [compound 716537]
- Yap1 mRNA, % UTC [2, 5]: 120 % UTC
- Yap1 mRNA, % UTC [2, 6]: 96 % UTC
- Yap1 mRNA, % UTC [2, 7]: 88 % UTC
- Yap1 mRNA, % UTC [2, 8]: 63 % UTC
- IC50 [2, 9]: > 4000 nM

Substance: 716479 (antisense kG*kA*kA*d[5mC]*dA*dA*dT*d[5mC]*dT*dT*dG*dA*dA*kG*kG*k[5mC]) [compound 716479]
- Yap1 mRNA, % UTC [2, 5]: 88 % UTC
- Yap1 mRNA, % UTC [2, 6]: 78 % UTC
- Yap1 mRNA, % UTC [2, 7]: 55 % UTC
- Yap1 mRNA, % UTC [2, 8]: 57 % UTC
- IC50 [2, 9]: > 4000 nM

Substance: 716484 (antisense k[5mC]*kA*k[5mC]*dT*dT*dT*dT*d[5mC]*d[5mC]*dA*dG*d[5mC]*dT*kA*kA*k[5mC]) [compound 716484]
- IC50 [2, 10]: > 4000 nM
- % UTC 148 nM [2, 11]: 88 % UTC
- % UTC 444 nM [2, 12]: 78 % UTC
- % UTC 1333 nM [2, 13]: 80 % UTC
- % UTC 4000 nM [2, 14]: 55 % UTC

Substance: 715523 (kA*kT*k[5mC]*dA*dG*dT*dA*d[5mC]*dT*dG*dG*d[5mC]*d[5mC]*kT*kA*kT; antisense) [compound 715523]
- IC50 [2, 15]: 3200 nM
- % UTC 148 nM [2, 16]: 100 % UTC
- % UTC 444 nM [2, 17]: 62 % UTC
- % UTC 1333 nM [2, 18]: 75 % UTC
- % UTC 4000 nM [2, 19]: 44 % UTC

Substance: 715478 (kA*k[5mC]*k[5mC]*dA*dT*dT*dA*dT*dT*dA*d[5mC]*dT*d[5mC]*k[5mC]*kT*kG; antisense) [compound 715478]
- IC50 [2, 15]: 400 nM
- % UTC 148 nM [2, 16]: 70 % UTC
- % UTC 444 nM [2, 17]: 47 % UTC
- % UTC 1333 nM [2, 18]: 29 % UTC
- % UTC 4000 nM [2, 19]: 16 % UTC
- IC50 [2, 10]: 600 nM
- % UTC 148 nM [2, 11]: 72 % UTC
- % UTC 444 nM [2, 12]: 59 % UTC
- % UTC 1333 nM [2, 13]: 31 % UTC
- % UTC 4000 nM [2, 14]: 18 % UTC
- Yap1 mRNA, % UTC [2, 5]: 76 % UTC
- Yap1 mRNA, % UTC [2, 6]: 56 % UTC
- Yap1 mRNA, % UTC [2, 7]: 32 % UTC
- Yap1 mRNA, % UTC [2, 8]: 18 % UTC
- IC50 [2, 9]: 600 nM

Substance: 715555 (kG*kT*kT*dA*dT*dT*d[5mC]*dA*dG*d[5mC]*dA*dG*d[5mC]*kT*kT*kA; antisense) [compound 715555]
- IC50 [2, 15]: 2500 nM
- % UTC 148 nM [2, 16]: 93 % UTC
- % UTC 444 nM [2, 17]: 71 % UTC
- % UTC 1333 nM [2, 18]: 63 % UTC
- % UTC 4000 nM [2, 19]: 42 % UTC

Substance: 715510 (kA*kT*kT*dT*dG*d[5mC]*dT*dG*dT*dG*d[5mC]*dT*dG*kG*kG*kA; antisense) [compound 715510]
- IC50 [2, 15]: 2400 nM
- % UTC 148 nM [2, 16]: 88 % UTC
- % UTC 444 nM [2, 17]: 67 % UTC
- % UTC 1333 nM [2, 18]: 59 % UTC
- % UTC 4000 nM [2, 19]: 45 % UTC

Substance: 716419 (antisense kT*kT*kT*d[5mC]*d[5mC]*dG*dG*dT*dG*d[5mC]*dA*dT*dG*kT*kG*kT) [compound 716419]
- Yap1 mRNA, % UTC [2, 5]: 89 % UTC
- Yap1 mRNA, % UTC [2, 6]: 84 % UTC
- Yap1 mRNA, % UTC [2, 7]: 49 % UTC
- Yap1 mRNA, % UTC [2, 8]: 47 % UTC
- IC50 [2, 9]: 2500 nM

Substance: 716503 (antisense kT*kT*kA*dT*dT*dA*dT*dG*dA*dG*dT*dG*dA*kT*k[5mC]*kA) [compound 716503]
- Yap1 mRNA, % UTC [2, 5]: 91 % UTC
- Yap1 mRNA, % UTC [2, 6]: 80 % UTC
- Yap1 mRNA, % UTC [2, 7]: 67 % UTC
- Yap1 mRNA, % UTC [2, 8]: 64 % UTC
- IC50 [2, 9]: > 4000 nM
